Key:
[1] = system: Beta-2 Adrenergic Receptor-Nluc (B2AR-Nluc) fusion protein; test: Cell permeability, B2AR-Nluc in HEK293 -/+ digitonin; format: cell-based; conditions: HEK293 B2AR-Nluc -/+ 50 μg/mL digitonin; up to 2 hrs
Method: HEK293 were transiently transfected with Beta-2 Adrenergic Receptor-Nluc (B2AR-Nluc) fusion protein to anchor and orient Nluc cytosolically and pGEM-3z carrier DNA (1:100). 24 hrs post-transfection, cells were treated with −/+50 μg/mL digitonin to emulate a live and lytic scenario, respectively. Then, intact cells and permeabilized cells were exposed to a compound response curve of thienopyrrole compound up to 2 hrs. 10 μM furimazine (Promega Corp.) was added, and luminescence was measured. If a thienopyrrole compound (inhibitor) was permeable, the dose-response curves for both live and permeabilized cells overlapped. However, if a thienopyrrole compound was impermeable, the EC50 was right-shifted in the live cells relative to the permeabilized cells.

[2] = biological target: T1, purified Nluc (extracellular); Nluc-HALOTAG fusion protein (intracellular) (Oplophorus gracilirostris, UniProt Q9GV45, A31E/A60N/A81I/F95D/I117V/K70R/L54V/L99Q/M102K/N193R/P142E/Q151K/Q38R/Q45L/V71I/Y165I); test: Inhibition of extracellular luciferase activity and enhancement of intracellular BRET; format: cell-based; conditions: HEK293 Nluc-HALOTAG + NANOBRET 618; 10 ng/mL extracellular purified Nluc; 2 hrs
T1 construct: expressed in transfected cells; host or cells: HEK293 (Nluc-HaloTag); purified Nluc added from outside
Method: HEK293 were transiently transfected with Nluc-HALOTAG fusion protein to orient Nluc-HALOTAG inside the cell. 24 hrs post-transfection, cells were labeled with NANOBRET 618 ligand to simulate specific intracellular BRET. Cells were then treated 10 ng/mL purified Nluc to simulate spurious extracellular luminescence. Cells were exposed to a compound response curve of the thienopyrrole compounds, JRW-0013, JRW-0051, JRW-0147, and JRW-0187, for 2 hrs. 10 μM furimazine was added, and the BRET ratio 610/450 nm was measured.

[3] = system: Nluc-HALOTAG labeled with NANOBRET 618 ligand; test: Inhibition of extracellular BRET; format: cell-based; conditions: HEK293 Nluc-HDAC6; 10 ng/mL extracellular Nluc-HALOTAG/NANOBRET 618; 2 hrs
Method: HEK293 were transiently transfected with an Nluc-HDAC6 fusion protein to orient Nluc-HDAC6 inside the cell. 24 hrs post-transfection, cells were treated 10 ng/mL purified Nluc-HALOTAG labeled with NANOBRET 618 ligand to simulate spurious extracellular BRET. Cells were then exposed to a compound response curve of the thienopyrrole compounds, JRW-0013, JRW-0051, JRW-0147, and JRW-0187, for 2 hrs. 10 μM furimazine was then added, and BRET ratio 610/450 nm was measured.

[4] = system: Nluc-ADRB2 (extracellular Nluc) or ADRB2-Nluc (intracellular Nluc); test: Cell permeability with bioluminescent imaging (HeLa, Nluc-ADRB2 / ADRB2-Nluc); format: cell-based; conditions: 30 μM compound, 10 μM furimazine
Method: HeLa cells were transiently transfected with Nluc-ADRB2 (extracellular Nluc) or ADRB2-Nluc (intracellular Nluc) to anchor and orient Nluc extracellularly or intracellularly, respectively. 24 hrs post-transfection, cells were treated with −/+30 μM of a thienopyrrole compound, JRW-0147, JRW-0013, and JRW-0344. 10 μM furimazine was added, and luminescence was detected by imaging on the Olympus LV200.

NANOLUC® enzyme = NANOLUC® enzyme (Oplophorus gracilirostris, UniProt Q9GV45, A31E/A60N/A81I/F95D/I117V/K70R/L54V/L99Q/M102K/N193R/P142E/Q151K/Q38R/Q45L/V71I/Y165I); test: Inhibitor IC50 determination (NANOLUC enzyme, furimazine); format: biochemical; conditions: IC50 (uM), 0.4 ng/ml NANOLUC enzyme, final furimazine 10 uM (at Km)
Nluc [5] = biological target: T2, Nluc (Oplophorus gracilirostris, UniProt Q9GV45, A31E/A60N/A81I/F95D/I117V/K70R/L54V/L99Q/M102K/N193R/P142E/Q151K/Q38R/Q45L/V71I/Y165I); test: Multiplex RealTime-Glo / Caspase-Glo 3/7 in A549 cells; format: cell-based; design: purchased Promega Corporation; conditions: final, 1 hr
Method: B) A549 cells were plated at 1,000 cells/well in 20 μL F12K media into wells of a Corning 3570 plate (n-4) and incubated overnight. Then, REALTIME-GLO™ MT Cell Viability assay reagents (Promega Corporation) were added to the wells as a 2× solution in 20 μL media. The reaction was incubated for 1 hr. 40 μL of a titration of JRW-0013 or JRW-0147 in CASPASE-GLO® 3/7 assay reagent (Promega Corporation) at 2× concentrations was added. The reactions were incubated at RT, and luminescence was determined at 1 hr.

Nluc [6] = biological target: T2, Nluc; test: Specificity of inhibition of Nluc luciferase: Nluc; format: biochemical

T2 sequence (Q9GV45 28-196 with tags or gaps with the stated changes limits assumed): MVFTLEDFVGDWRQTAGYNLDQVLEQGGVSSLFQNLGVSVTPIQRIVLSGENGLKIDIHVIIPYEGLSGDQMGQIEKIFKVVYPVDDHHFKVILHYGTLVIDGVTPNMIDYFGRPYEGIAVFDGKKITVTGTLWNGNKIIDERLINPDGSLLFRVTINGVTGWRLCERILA
Sequence of NANOLUC® enzyme (Q9GV45 28-196 with tags or gaps with the stated changes limits assumed): as above
T1 sequence (Q9GV45 28-196 with tags or gaps with the stated changes limits assumed): as above

SMILES	Cell permeability, EC50 in Live vs Lytic cells (FIGS. 17A-17C) [1]	BRET ratio 610/450 nm across compound dose-response curve (FIGS. 13B-13E) [2]	BRET ratio 610/450 nm across compound dose-response curve (FIGS. 12B-12E) [3]	Inhibition of Nluc oriented extracellularly / intracellularly by imaging (FIG. 19) [4]	IC50 (NANOLUC® enzyme) [µM]	Caspase, Avg (luminescence) (Nluc [5]; Inhibitor 1.73 μM)	Caspase, Avg (luminescence) (Nluc [5]; Inhibitor 2.60 μM)	Caspase, Avg (luminescence) (Nluc [5]; Inhibitor 3.90 μM)	Caspase, Avg (luminescence) (Nluc [5]; Inhibitor 5.85 μM)	Caspase, Avg (luminescence) (Nluc [5]; Inhibitor 8.78 μM)	Caspase, Avg (luminescence) (Nluc [5]; Inhibitor 13.17 μM)	Caspase, Avg (luminescence) (Nluc [5]; Inhibitor 19.75 μM)	Caspase, Avg (luminescence) (Nluc [5]; Inhibitor 29.63 μM)	Caspase, Avg (luminescence) (Nluc [5]; Inhibitor 44.44 μM)	Caspase, Avg (luminescence) (Nluc [5]; Inhibitor 66.67 μM)	Caspase, Avg (luminescence) (Nluc [5]; Inhibitor 100 μM)	Nluc, Avg (luminescence) (Nluc [6]; [cmpd] 0.1953125 μM)	Nluc, S/B (Nluc [6]; [cmpd] 0.1953125 μM)	Nluc, Avg (luminescence) (Nluc [6]; [cmpd] 0.390625 μM)	Nluc, S/B (Nluc [6]; [cmpd] 0.390625 μM)	also measured
CCN(C(=O)Cn1c(C(=O)N[C@H]2CC[C@H](C(=O)OC)CC2)cc2sccc21)c1cccc(C)c1 [JRW-0013, trans-methyl-4-(4-(2-(ethyl(m-tolyl)amino)-2-oxoethyl)-4H-thieno[3,2-b]pyrrole-5-carboxamido)cyclohexane-1-carboxylate]	cell permeable control characterized by similar EC50 in Live vs Lytic cells	BRET ratio remained constant	BRET ratio remained constant	inhibited Nluc in either orientation	0.14	12879	11813	9148	8059	6703	6014	5095	5132	4419	4017	3619					
CCN(C(=O)Cn1c(C(=O)N[C@H]2CC[C@H](C(=O)NCCCCCC(=O)O)CC2)cc2sccc21)c1cccc(C)c1 [JRW-0147, 6-(trans-4-(4-(2-(ethyl(m-tolyl)amino)-2-oxoethyl)-4H-thieno[3,2-b]pyrrole-5-carboxamido)cyclohexane-1-carboxamido)hexanoic acid]	cell impermeable characterized by right shifted EC50 in Live vs. Lytic cells	intracellular BRET ratio was enhanced	BRET ratio decreased	inhibit the classic ring-like structure, but not when Nluc is orientated intracellularly	0.094	15580	11677	9790	8013	7125	5545	5302	4394	4367	3427	3389	115442	0.97	113278	0.95	Nluc, Avg (luminescence) (Nluc [6]; [cmpd] 0.78125 μM): 111603; Nluc, S/B (Nluc [6]; [cmpd] 0.78125 μM): 0.94; Nluc, Avg (luminescence) (Nluc [6]; [cmpd] 1.5625 μM): 103399; Nluc, S/B (Nluc [6]; [cmpd] 1.5625 μM): 0.87; Nluc, Avg (luminescence) (Nluc [6]; [cmpd] 3.125 μM): 96256; Nluc, S/B (Nluc [6]; [cmpd] 3.125 μM): 0.81; Nluc, Avg (luminescence) (Nluc [6]; [cmpd] 6.25 μM): 79191; Nluc, S/B (Nluc [6]; [cmpd] 6.25 μM): 0.67; Nluc, Avg (luminescence) (Nluc [6]; [cmpd] 12.5 μM): 66480; Nluc, S/B (Nluc [6]; [cmpd] 12.5 μM): 0.56; Nluc, Avg (luminescence) (Nluc [6]; [cmpd] 25 μM): 54498; Nluc, S/B (Nluc [6]; [cmpd] 25 μM): 0.46; Nluc, Avg (luminescence) (Nluc [6]; [cmpd] 50 μM): 42630; Nluc, S/B (Nluc [6]; [cmpd] 50 μM): 0.36; Nluc, Avg (luminescence) (Nluc [6]; [cmpd] 100 μM): 32702; Nluc, S/B (Nluc [6]; [cmpd] 100 μM): 0.27; Nluc, Avg (luminescence) (Nluc [6]; [cmpd] 200 μM): 23722; Nluc, S/B (Nluc [6]; [cmpd] 200 μM): 0.20
CCN(C(=O)Cn1c(C(=O)N[C@H]2CC[C@H](C(=O)NCCCCCCS(=O)(=O)[O-])CC2)cc2sccc21)c1cccc(C)c1.[Na+] [JRW-0344, Sodium 6-(trans-4-(4-(2-(ethyl(m-tolyl)amino)-2-oxoethyl)-4H-thieno[3,2-b]pyrrole-5-carboxamido)cyclohexane-1-carboxamido)hexane-1-sulfonate]	cell impermeable characterized by right shifted EC50 in Live vs. Lytic cells			inhibit the classic ring-like structure, but not when Nluc is orientated intracellularly	0.077												102409	0.92	99851	0.90	Nluc, Avg (luminescence) (Nluc [6]; [cmpd] 0.78125 μM): 95060; Nluc, S/B (Nluc [6]; [cmpd] 0.78125 μM): 0.86; Nluc, Avg (luminescence) (Nluc [6]; [cmpd] 1.5625 μM): 83141; Nluc, S/B (Nluc [6]; [cmpd] 1.5625 μM): 0.75; Nluc, Avg (luminescence) (Nluc [6]; [cmpd] 3.125 μM): 71976; Nluc, S/B (Nluc [6]; [cmpd] 3.125 μM): 0.65; Nluc, Avg (luminescence) (Nluc [6]; [cmpd] 6.25 μM): 65136; Nluc, S/B (Nluc [6]; [cmpd] 6.25 μM): 0.59; Nluc, Avg (luminescence) (Nluc [6]; [cmpd] 12.5 μM): 52627; Nluc, S/B (Nluc [6]; [cmpd] 12.5 μM): 0.47; Nluc, Avg (luminescence) (Nluc [6]; [cmpd] 25 μM): 40392; Nluc, S/B (Nluc [6]; [cmpd] 25 μM): 0.36; Nluc, Avg (luminescence) (Nluc [6]; [cmpd] 50 μM): 32113; Nluc, S/B (Nluc [6]; [cmpd] 50 μM): 0.29; Nluc, Avg (luminescence) (Nluc [6]; [cmpd] 100 μM): 23445; Nluc, S/B (Nluc [6]; [cmpd] 100 μM): 0.21; Nluc, Avg (luminescence) (Nluc [6]; [cmpd] 200 μM): 16291; Nluc, S/B (Nluc [6]; [cmpd] 200 μM): 0.15

From patent publication US10513694B2, “Thienopyrrole compounds and uses thereof” (PROMEGA CORPORATION, priority 2015, dated 2019)
